Laboratory results as given in publication PMC11650735, “Challenging Reported Frizzled-Targeting Compounds in Selective Assays Reveals Lack of Functional Inhibition and Claimed Profiles” (ACS Pharmacology & Translational Science, 2024).

System: individually reexpressed FZDs (1,2,4,5,7,8, and 10)
Test: TopFlash in ΔFZD1–10 HEK293T, panel of individually reexpressed FZDs, Wnt3a-stimulated (collective statements)
Settings: compared with pcDNA+CHIR99021

## O=C(/C=C/c1ccc2c(c1)OCO2)Nc1ccc(-n2cnc3ccccc32)cc1 [SRI35959]
  FZDs whose reintroduction reduces the compound's potency: FZD1,4, and 7

## NC(=O)N1c2ccccc2C=Cc2ccccc21 [carbamazepine]
  FZDs whose reintroduction reduces the compound's potency: FZD5 and FZD8
